# From publication PMC8388802, “Study on the Structure-Activity Relationship of an Antimicrobial Peptide, Brevinin-2GUb, from the Skin Secretion of Hylarana guentheri” (Antibiotics, 2021)
# Where a SMILES comes first, the peptide text is derived from it. Where no end group is shown, it is not given here.
# Experiments:
# [1] = system: enteroaggregative E. coli; conditions: cited from earlier work
# Source text: Due to the influence of physiological factors, there may be some difference between the antimicrobial activity in vitro and in vivo [41]. Consistent with the haemolysis assay and cytotoxicity assay results, Brevinin-2GUb is much harmful to the wax moth than tB2U-K and tB2U-6K. […] In our study, with the increase of the number of net charges, the survival rate of E. coli-infected wax moth is enhanced and the ability o ...
# [2] = system: MRSA (NCTC 12493) biofilm; format: cell-based, Methicillin-resistant Staphylococcus aureus; conditions: NCTC 12493, 24 h
# Description: (§1) The anti-biofilm activities of the peptides against S. aureus (ATCC 6538), MRSA (NCTC 12493), E. faecalis (NCTC 12493), E. coli (ATCC CRM 8739), K. pneumoniae (ATCC 43816), and P. aeruginosa (ATCC CRM 9027) were evaluated.
# (§2) The bacteria were inoculated in a different medium (Gram-positive bacteria were in TSB and Gram-negative bacteria were in LB) overnight, and the subculture was conducted in the same medium. When the bacteria reached a specific density, 100 µL of the dilution was added to each well of the 96-well microplate. Then 1 µL of peptide at a series of concentrations, the same concentration in the antimicrobial assay, were added into the well together with the bacteria. The plates were put into a moist shaking incubator with a speed of 200 rpm, and the temperature was set at 37 ℃. After a 24-h incubation, the liquid in the wells was aspirated, and each was washed twice by 100 µL PBS. One hundred µL of methanol were added into each well to stabilise the biofilm. After air-drying, 100 µL crystal violet was used to dye the biofilm, and they were dissolved in the 100 µL glacial acidic acid after drying. The solutions were transferred to a new microplate, and the absorbance of each well was tested by a microplate reader (EL808, Biolise BioTek Winooski, Minneapolis, MN, USA) at 595 nm wavelength. MBIC was the minimum concentration of the peptide showing no biofilm formation.
# The bacteria were inoculated in a different medium (Gram-positive bacteria were in TSB and Gram-negative bacteria were in LB) overnight, and the subculture was conducted in the same medium. When the bacteria reached a specific density, 100 µL of the dilution was added to each well of the 96-well microplates. The plates were put into a moist shaking incubator with a speed of 200 rpm and the temperature was 37 ℃. […] The solutions were transferred to a new microplate, and the absorbance of each well was tested by a microplate reader (EL808, Biolise BioTek Winooski, Minneapolis, USA) at 595 nm wavelength.
# [3] = system: C. albicans (ATCC CRM 10231); format: cell-based, Candida albicans
# Description: (§3) The method of antimicrobial assay is based on the Methods for Dilution Antimicrobial Susceptibility Tests for Bacteria that Grow Aerobically from the Clinical and Laboratory Standards Institute (CLSI).The antimicrobial activities of peptides were evaluated against Gram-positive bacteria S. aureus (ATCC 6538), MRSA (NCTC 12493), E. faecalis (NCTC 12493), Gram-negative bacteria E. coli (ATCC CRM 8739), K. pneumoniae (ATCC 43816), P. aeruginosa (ATCC CRM 9027), yeast C. albicans (ATCC CRM 10231) and clinical isolates MRSA (B042 V2E1 A), E. coli (ATCC BAA-2340), K. pneumoniae (ATCC BAA-1705), P. aeruginosa (B004 V2S2 B).
# (§4) At the first stage of the assay, 20 μL bacteria were cultured in 100 mL Mueller Hinton Broth (MHB) or Yeast Extract–Peptone–Dextrose broth (YPD-B), respectively, and was incubated overnight. Then, microorganisms were subcultured in 20 mL fresh MHB or YPD-B to achieve cultures in the logarithmic phase (1 × 10^8 CFU/mL), which can be verified by optical density (OD) (The OD of Gram-positive bacteria is 0.23, OD of Gram-negative bacteria is 0.4, and OD of yeast is 0.15), and viable cell counts. Then, the medium was used to dilute the cultures to specific cell densities (Gram-negative and Gram-positive bacteria: 5 × 10^5 CFU/mL; yeast: 1 × 10^6 CFU/mL), which were the final concentrations of bacterial suspensions used in the assay. The peptides were dissolved in DMSO to reach a final concentration of 512 µM. A series of two-fold dilutions ranging from 512 µM to 1 µM were dosed in the 96-well plates.
# (§5) Antimicrobial assays were conducted in 96-well plates, which were divided into five groups, including a negative control group (PBS), a positive control group (20 μg/mL norfloxacin for bacteria and 10 μg/mL amphotericin B for yeast), vehicle control (1% DMSO), blank control (MHB or YPD-B), and a peptide group. Each microorganism had five repetitions, and each well contained 1 µL corresponding solution and 99 µL culture. After incubation at 37 °C overnight, the absorbance of each well was tested by a microplate reader (EL808, Biolise BioTek Winooski, Minneapolis, USA) under a 550 nm wavelength. The MIC is the lowest concentration at which no bacterial growth can be observed.
# (§6) The next day, 10 µL of every clear well was taken out to be cultured on a Mueller Hinton Agar (MHA) plate and incubated at 37 °C for 16–20 h. The MBC is the lowest concentration without any bacterial colonies, which means at this concentration, the peptide reduces the viability of the pathogen by more than 99.9%.
# [4] = system: E. coli (ATCC CRM 8739) biofilm; format: cell-based, Escherichia coli; conditions: ATCC CRM 8739, 24 h
# Description: as §1, §2
# (§7) The bacteria were inoculated in a different medium (Gram-positive bacteria were in TSB and Gram-negative bacteria were in LB) overnight, and the subculture was conducted in the same medium. When the bacteria reached a specific density, 100 µL of the dilution was added to each well of the 96-well microplates. The plates were put into a moist shaking incubator with a speed of 200 rpm and the temperature was 37 ℃. After a 24 h incubation, the liquid in the wells was aspirated and they were washed twice by 100 µL PBS of each well. The peptides with the same concentrations were diluted in the corresponding medium and 100 µL were added into each well. After a 24-h incubation, the liquid in the wells was aspirated and they were washed twice by 100 µL PBS. One hundred µL of methanol were added into the wells to stabilise the biofilms. After being air-dried, 100 µL crystal violet was used to dye the biofilm, and they were dissolved in the 100 µL glacial acidic acid after drying. The solutions were transferred to a new microplate, and the absorbance of each well was tested by a microplate reader (EL808, Biolise BioTek Winooski, Minneapolis, USA) at 595 nm wavelength.
# [5] = system: P. aeruginosa (ATCC CRM 9027) biofilm; format: cell-based, Pseudomonas aeruginosa; conditions: ATCC CRM 9027, 24 h
# Description: as §1, §2, §7
# [6] = system: S. aureus (ATCC 6538) biofilm; format: cell-based, Staphylococcus aureus; conditions: ATCC 6538, 24 h
# Description: as §1, §2, §7
# [7] = system: E. faecalis (NCTC 12493) biofilm; format: cell-based, Enterococcus faecalis; conditions: NCTC 12493, 24 h
# Description: as §1, §2, §7
# E. coli (ATCC CRM 8739) = format: cell-based, Escherichia coli
# Description: as §3, §4, §5, §6
# E. coli (ATCC BAA-2340) = format: cell-based, Escherichia coli
# Description: as §3, §4, §5, §6
# E. faecalis (NCTC 12493) = format: cell-based, Enterococcus faecalis
# Description: as §3, §4, §5, §6
# [8] = system: wax moth (Galleria mellonella); test: Toxicity of peptides to waxworms; format: in vivo; conditions: uninfected waxworms, when the concentration reached 15 mg/kg
# MRSA (B042 V2E1 A) = format: cell-based, Methicillin-resistant Staphylococcus aureus
# Description: as §3, §4, §5, §6
# MRSA (NCTC 12493) = format: cell-based, Methicillin-resistant Staphylococcus aureus
# Description: as §3, §4, §5, §6
# [9] = system: K. pneumoniae (ATCC BAA-1705); format: cell-based, Klebsiella pneumoniae
# Description: as §3, §4, §5, §6
# [10] = system: K. pneumoniae (ATCC 43816); format: cell-based, Klebsiella pneumoniae
# Description: as §3, §4, §5, §6
# S. aureus (ATCC 6538) = format: cell-based, Staphylococcus aureus
# Description: as §3, §4, §5, §6
# [11] = system: P. aeruginosa (ATCC CRM 9027); format: cell-based, Pseudomonas aeruginosa
# Description: as §3, §4, §5, §6
# [12] = system: P. aeruginosa (B004 V2S2 B); format: cell-based, Pseudomonas aeruginosa
# Description: as §3, §4, §5, §6
# [13] = system: K. pneumoniae (ATCC 43816) biofilm; format: cell-based, Klebsiella pneumoniae; conditions: ATCC 43816, 24 h
# Description: as §1, §2, §7
compound,measurement,setting,value
"Indolicidin (ILPWKWPWWPWRR; ends and bridges not checked; UniProt P33046 131-143, looked up) [antimicrobial peptide of a previous study in Galleria mellonella]",survival rate of Galleria mellonella infected by the enteroaggregative E. coli,[1],up to 95%
"CC[C@H](C)[C@H](NC(=O)[C@@H](NC(=O)CN)C(C)C)C(=O)N[C@H](C(=O)N[C@@H](CC(=O)O)C(=O)N[C@H](C(=O)N[C@@H](CC(C)C)C(=O)N[C@@H](CCCCN)C(=O)NCC(=O)N[C@@H](C)C(=O)N[C@@H](C)C(=O)N[C@@H](CCCCN)C(=O)N[C@H](C(=O)N[C@H](C(=O)N[C@@H](C)C(=O)N[C@@H](C)C(=O)N[C@@H](CCC(=O)O)C(=O)N[C@@H](CC(C)C)C(=O)N[C@@H](CC(C)C)C(=O)N[C@@H](CCCNC(=N)N)C(=O)N[C@@H](CCCCN)C(=O)N[C@@H](C)C(=O)N[C@@H](Cc1c[nH]cn1)C(=O)N[C@H]1CSSC[C@@H](C(=O)O)NC(=O)[C@H](CO)NC(=O)[C@H](CC(N)=O)NC(=O)[C@H]([C@@H](C)O)NC(=O)[C@H](CC(C)C)NC(=O)[C@H](CCCCN)NC1=O)C(C)C)[C@@H](C)O)[C@@H](C)O)[C@@H](C)CC [Brevinin-2GUb] (HELM PEPTIDE1{G.V.I.I.D.T.L.K.G.A.A.K.T.V.A.A.E.L.L.R.K.A.H.C.K.L.T.N.S.C}$PEPTIDE1,PEPTIDE1,24:R3-30:R3$$$V2.0)",MBIC,[2],256 µM
same,MBC,[3],>512 µM
same,MIC,[3],>512 µM
same,MBEC,[4],> 512 µM
same,MBIC,[4],128 µM
same,MBEC,[5],>512 µM
same,MBIC,[5],>512 µM
same,MBEC,[6],> 512 µM
same,MBIC,[6],256 µM
same,MBEC,[7],>512 µM
same,MBIC,[7],>512 µM
same,MBC,E. coli (ATCC CRM 8739),16 µM
same,MIC,E. coli (ATCC CRM 8739),16 µM
same,MBC,E. coli (ATCC BAA-2340),32 µM
same,MIC,E. coli (ATCC BAA-2340),32 µM
same,MBC,E. faecalis (NCTC 12493),>512 µM
same,MIC,E. faecalis (NCTC 12493),>512 µM
same,toxicity to waxworms,[8],modest toxicity
same,MBC,MRSA (B042 V2E1 A),>512 µM
same,MIC,MRSA (B042 V2E1 A),>512 µM
same,MBC,MRSA (NCTC 12493),>512 µM
same,MIC,MRSA (NCTC 12493),>512 µM
same,MBC,[9],512 µM
same,MIC,[9],512 µM
same,MBC,[10],128 µM
same,MIC,[10],128 µM
same,MBC,S. aureus (ATCC 6538),32 µM
same,MIC,S. aureus (ATCC 6538),32 µM
same,MBC,[11],512 µM
same,MIC,[11],128 µM
same,MBC,[12],>512 µM
same,MIC,[12],>512 µM
same,MBEC,[13],>512 µM
same,MBIC,[13],>512 µM
